{"source": "patent US10202361B2", "about": "“Pyridazinones as herbicides” (E I DU PONT DE NEMOURS AND COMPANY, priority 2014, dated 2019)", "format_in_all_cases": "in vivo", "key": {"corn (Zea mays)": {"test_system": "corn (Zea mays)", "assay": "Test A pre-/postemergence greenhouse herbicide test", "conditions": "Zea mays, 240 h, 0 to 100 scale (0 no effect, 100 complete control), approx. 10 d; for Corn plant response rating (crop injury, 0 = no effect, 100 = complete kill) at 125 g/ha: 125 g ai/ha; for Corn plant response rating (crop injury, 0 = no effect, 100 = complete kill) at 500 g/ha: 500 g ai/ha", "procedure,_shortened": "(§1)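 Pre + post applications, simultaneous; formulation = non-phytotoxic solvent mix incl. surfactant. Post: 1–2 leaf stage, 2–10 cm. Soil: loam/sand. Greenhouse ~10 d, visual rating 0 (no effect) to 100 (complete control) vs untreated.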"}, "[1]": {"test_system": "barnyardgrass (Echinochloa crus-galli)", "assay": "Test A pre-/postemergence greenhouse herbicide test", "conditions": "Echinochloa crus-galli, 240 h, 0 to 100 scale (0 no effect, 100 complete control), approx. 10 d, read-out: Plant response rating, Barnyardgrass; for pest or weed control at 125 g/ha: 125 g ai/ha; for pest or weed control at 500 g/ha: 500 g ai/ha", "procedure,_shortened": "as §1"}, "[2]": {"test_system": "pigweed (Amaranthus retroflexus)", "assay": "Test A pre-/postemergence greenhouse herbicide test", "conditions": "Amaranthus retroflexus, 240 h, 0 to 100 scale (0 no effect, 100 complete control), approx. 10 d, read-out: Plant response rating, Pigweed; for pest or weed control at 125 g/ha: 125 g ai/ha; for pest or weed control at 500 g/ha: 500 g ai/ha", "procedure,_shortened": "as §1"}, "[3]": {"test_system": "johnsongrass (Sorghum halepense)", "assay": "Test C pre-/postemergence greenhouse herbicide test", "conditions": "Sorghum halepense, Johnsongrass, read-out: Plant response rating; for pest or weed control at 31 g/ha: 31 g ai/ha; for pest or weed control at 62 g/ha: 62 g ai/ha; for pest or weed control at 125 g/ha: 125 g ai/ha; for pest or weed control at 250 g/ha: 250 g ai/ha", "procedure,_shortened": "(§2)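 Greenhouse pre- and postemergence screen: compounds in a non-phytotoxic solvent mix plus surfactant were applied to soil/sand-sown seeds or to 1- to 4-leaf plants. Visual rating 13–15 d later, 0 (no effect) to 100 (complete control).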"}, "[4]": {"test_system": "ragweed (common ragweed, Ambrosia elatior)", "assay": "Test C pre-/postemergence greenhouse herbicide test", "conditions": "Ambrosia artemisiifolia, Ragweed, read-out: Plant response rating; for pest or weed control at 31 g/ha: 31 g ai/ha; for pest or weed control at 62 g/ha: 62 g ai/ha; for pest or weed control at 125 g/ha: 125 g ai/ha; for pest or weed control at 250 g/ha: 250 g ai/ha", "procedure,_shortened": "as §2"}, "[5]": {"test_system": "wheat (winter wheat, Triticum aestivum)", "assay": "Test C pre-/postemergence greenhouse herbicide test", "conditions": "Triticum aestivum, Wheat, read-out: Plant response rating; for plant injury at 62 g/ha: 62 g ai/ha; for plant injury at 125 g/ha: 125 g ai/ha; for plant injury at 250 g/ha: 250 g ai/ha", "procedure,_shortened": "as §2"}, "[6]": {"test_system": "oat, wild (wild oat, Avena fatua)", "assay": "Test C pre-/postemergence greenhouse herbicide test", "conditions": "Postemergence", "procedure,_shortened": "as §2"}, "[7]": {"test_system": "pigweed (Amaranthus retroflexus)", "assay": "Test C pre-/postemergence greenhouse herbicide test", "conditions": "Amaranthus retroflexus, Pigweed, read-out: Plant response rating; for pest or weed control at 31 g/ha: 31 g ai/ha; for pest or weed control at 62 g/ha: 62 g ai/ha; for pest or weed control at 125 g/ha: 125 g ai/ha; for pest or weed control at 250 g/ha: 250 g ai/ha", "procedure,_shortened": "as §2"}, "[8]": {"test_system": "morningglory (Ipomoea coccinea)", "assay": "Test C pre-/postemergence greenhouse herbicide test", "conditions": "Morningglory", "procedure,_shortened": "as §2"}, "[9]": {"test_system": "blackgrass (Alopecurus myosuroides)", "assay": "Test C pre-/postemergence greenhouse herbicide test", "conditions": "Alopecurus myosuroides, Blackgrass, read-out: Plant response rating; for pest or weed control at 31 g/ha: 31 g ai/ha; for pest or weed control at 62 g/ha: 62 g ai/ha; for pest or weed control at 125 g/ha: 125 g ai/ha; for pest or weed control at 250 g/ha: 250 g ai/ha", "procedure,_shortened": "as §2"}}, "note": "Where two headings read alike, the source gives them in different places."}
{"smiles": "COc1cc(=O)n(-c2ccc(C(F)(F)F)cc2)nc1Cc1ccnc(C(F)(F)F)c1", "note": "[Compound 16, 5-methoxy-2-[4-(trifluoromethyl)phenyl]-6-[[2-(trifluoromethyl)-4-pyridinyl]methyl]-3(2H)-pyridazinone]", "values": [{"measurement": "Corn plant response rating (crop injury, 0 = no effect, 100 = complete kill) at 125 g/ha", "setting": "corn (Zea mays); post-emergence, Postemergence", "result": 20, "unit": "%"}, {"measurement": "Corn plant response rating (crop injury, 0 = no effect, 100 = complete kill) at 500 g/ha", "setting": "corn (Zea mays); post-emergence, Postemergence", "result": 80, "unit": "%"}, {"measurement": "Corn plant response rating (crop injury, 0 = no effect, 100 = complete kill) at 125 g/ha", "setting": "corn (Zea mays); pre-emergence, Preemergence", "result": 40, "unit": "%"}, {"measurement": "Corn plant response rating (crop injury, 0 = no effect, 100 = complete kill) at 500 g/ha", "setting": "corn (Zea mays); pre-emergence, Preemergence", "result": 70, "unit": "%"}, {"measurement": "pest or weed control at 125 g/ha", "setting": "[1]; post-emergence, Postemergence", "result": 80, "unit": "%"}, {"measurement": "pest or weed control at 500 g/ha", "setting": "[1]; post-emergence, Postemergence", "result": 90, "unit": "%"}, {"measurement": "pest or weed control at 125 g/ha", "setting": "[1]; pre-emergence, Preemergence", "result": 90, "unit": "%"}, {"measurement": "pest or weed control at 500 g/ha", "setting": "[1]; pre-emergence, Preemergence", "result": 100, "unit": "%"}, {"measurement": "pest or weed control at 125 g/ha", "setting": "[2]; post-emergence, Postemergence", "result": 100, "unit": "%"}, {"measurement": "pest or weed control at 500 g/ha", "setting": "[2]; post-emergence, Postemergence", "result": 100, "unit": "%"}, {"measurement": "pest or weed control at 125 g/ha", "setting": "[2]; pre-emergence, Preemergence", "result": 100, "unit": "%"}, {"measurement": "pest or weed control at 500 g/ha", "setting": "[2]; pre-emergence, Preemergence", "result": 100, "unit": "%"}, {"measurement": "pest or weed control at 31 g/ha", "setting": "[3]; post-emergence, Postemergence", "result": 10, "unit": "%"}, {"measurement": "pest or weed control at 62 g/ha", "setting": "[3]; post-emergence, Postemergence", "result": 10, "unit": "%"}, {"measurement": "pest or weed control at 125 g/ha", "setting": "[3]; post-emergence, Postemergence", "result": 20, "unit": "%"}, {"measurement": "pest or weed control at 250 g/ha", "setting": "[3]; post-emergence, Postemergence", "result": 35, "unit": "%"}, {"measurement": "pest or weed control at 31 g/ha", "setting": "[3]; pre-emergence, Preemergence", "result": 60, "unit": "%"}, {"measurement": "pest or weed control at 62 g/ha", "setting": "[3]; pre-emergence, Preemergence", "result": 75, "unit": "%"}, {"measurement": "pest or weed control at 125 g/ha", "setting": "[3]; pre-emergence, Preemergence", "result": 85, "unit": "%"}, {"measurement": "pest or weed control at 250 g/ha", "setting": "[3]; pre-emergence, Preemergence", "result": 98, "unit": "%"}, {"measurement": "pest or weed control at 31 g/ha", "setting": "[4]; post-emergence, Postemergence", "result": 15, "unit": "%"}, {"measurement": "pest or weed control at 62 g/ha", "setting": "[4]; post-emergence, Postemergence", "result": 25, "unit": "%"}, {"measurement": "pest or weed control at 125 g/ha", "setting": "[4]; post-emergence, Postemergence", "result": 60, "unit": "%"}, {"measurement": "pest or weed control at 250 g/ha", "setting": "[4]; post-emergence, Postemergence", "result": 60, "unit": "%"}, {"measurement": "pest or weed control at 31 g/ha", "setting": "[4]; pre-emergence, Preemergence", "result": 20, "unit": "%"}, {"measurement": "pest or weed control at 62 g/ha", "setting": "[4]; pre-emergence, Preemergence", "result": 65, "unit": "%"}, {"measurement": "pest or weed control at 125 g/ha", "setting": "[4]; pre-emergence, Preemergence", "result": 65, "unit": "%"}, {"measurement": "pest or weed control at 250 g/ha", "setting": "[4]; pre-emergence, Preemergence", "result": 100, "unit": "%"}, {"measurement": "plant injury at 31 g/ha", "setting": "[5]; post-emergence, Postemergence, 31 g ai/ha", "result": 5, "unit": "%"}, {"measurement": "plant injury at 62 g/ha", "setting": "[5]; post-emergence, Postemergence", "result": 5, "unit": "%"}, {"measurement": "plant injury at 125 g/ha", "setting": "[5]; post-emergence, Postemergence", "result": 10, "unit": "%"}, {"measurement": "plant injury at 250 g/ha", "setting": "[5]; post-emergence, Postemergence", "result": 10, "unit": "%"}, {"measurement": "plant injury at 62 g/ha", "setting": "[5]; pre-emergence, Preemergence", "result": 25, "unit": "%"}, {"measurement": "plant injury at 125 g/ha", "setting": "[5]; pre-emergence, Preemergence", "result": 45, "unit": "%"}, {"measurement": "plant injury at 250 g/ha", "setting": "[5]; pre-emergence, Preemergence", "result": 50, "unit": "%"}, {"measurement": "Plant response rating", "setting": "[6]; 31 g ai/ha", "result": 15}, {"measurement": "Plant response rating", "setting": "[6]; 62 g ai/ha", "result": 30}, {"measurement": "Plant response rating", "setting": "[6]; 125 g ai/ha", "result": 40}, {"measurement": "Plant response rating", "setting": "[6]; 250 g ai/ha", "result": 60}, {"measurement": "pest or weed control at 31 g/ha", "setting": "[7]; post-emergence, Postemergence", "result": 55, "unit": "%"}, {"measurement": "pest or weed control at 62 g/ha", "setting": "[7]; post-emergence, Postemergence", "result": 90, "unit": "%"}, {"measurement": "pest or weed control at 125 g/ha", "setting": "[7]; post-emergence, Postemergence", "result": 95, "unit": "%"}, {"measurement": "pest or weed control at 250 g/ha", "setting": "[7]; post-emergence, Postemergence", "result": 95, "unit": "%"}, {"measurement": "pest or weed control at 31 g/ha", "setting": "[7]; pre-emergence, Preemergence", "result": 100, "unit": "%"}, {"measurement": "pest or weed control at 62 g/ha", "setting": "[7]; pre-emergence, Preemergence", "result": 100, "unit": "%"}, {"measurement": "pest or weed control at 125 g/ha", "setting": "[7]; pre-emergence, Preemergence", "result": 100, "unit": "%"}, {"measurement": "pest or weed control at 250 g/ha", "setting": "[7]; pre-emergence, Preemergence", "result": 100, "unit": "%"}, {"measurement": "Plant response rating", "setting": "[8]; Postemergence, 31 g ai/ha", "result": 50}, {"measurement": "Plant response rating", "setting": "[8]; Postemergence, 62 g ai/ha", "result": 70}, {"measurement": "Plant response rating", "setting": "[8]; Postemergence, 125 g ai/ha", "result": 98}, {"measurement": "Plant response rating", "setting": "[8]; Postemergence, 250 g ai/ha", "result": 98}, {"measurement": "Plant response rating", "setting": "[8]; Preemergence, 31 g ai/ha", "result": 45}, {"measurement": "Plant response rating", "setting": "[8]; Preemergence, 62 g ai/ha", "result": 95}, {"measurement": "Plant response rating", "setting": "[8]; Preemergence, 125 g ai/ha", "result": 100}, {"measurement": "Plant response rating", "setting": "[8]; Preemergence, 250 g ai/ha", "result": 100}, {"measurement": "pest or weed control at 31 g/ha", "setting": "[9]; post-emergence, Postemergence", "result": 5, "unit": "%"}, {"measurement": "pest or weed control at 62 g/ha", "setting": "[9]; post-emergence, Postemergence", "result": 5, "unit": "%"}, {"measurement": "pest or weed control at 125 g/ha", "setting": "[9]; post-emergence, Postemergence", "result": 5, "unit": "%"}, {"measurement": "pest or weed control at 250 g/ha", "setting": "[9]; post-emergence, Postemergence", "result": 10, "unit": "%"}, {"measurement": "pest or weed control at 31 g/ha", "setting": "[9]; pre-emergence, Preemergence", "result": 40, "unit": "%"}, {"measurement": "pest or weed control at 62 g/ha", "setting": "[9]; pre-emergence, Preemergence", "result": 50, "unit": "%"}, {"measurement": "pest or weed control at 125 g/ha", "setting": "[9]; pre-emergence, Preemergence", "result": 60, "unit": "%"}, {"measurement": "pest or weed control at 250 g/ha", "setting": "[9]; pre-emergence, Preemergence", "result": 90, "unit": "%"}]}
